Test results: patent publication US5783586A, “Heteroarylmethoxyphenylthioalkyl carboxylates as inhibitors of leukotriene biosynthesis” (Abbott Laboratories, priority 1996, dated 1998)

Experiments:
[1] = test system: leukotriene biosynthesis (LTB4) in human polymorphornuclear leukocytes (PMNL); experiment: calcium ionophore-induced LTB4 in human PMNL (leukotriene biosynthesis inhibition in vitro); assay type: cell-based; conditions: calcium ionophore 8.3 μM, 15 min preincubation, LTB4 measured
Method: Lipoxygenase Inhibition Determination in vitro
Inhibition of leukotriene biosynthesis was evaluated in vitro using an assay involving calcium ionophore-induced LTB4 expressed in human polymorphornuclear leukocytes (PMNL). Human PMNL isolated from heparinized (20 USP units/mL) venous blood (25 mL) obtained from healthy volunteers was layered over an equal volume of Ficoll-Hypaque Mono-Poly Resolving Medium (ICN Flow, Costa Mesa, Calif.) and centrifugated at 400 × g for 40 minutes at 20° C. The PMNL was collected, erythrocytes lysed and washed 2× and suspended at 1.0×10^7 cells/ml in Earle's balanced salt solution with 17 mM Earle's HEPES. Aliquots of the cell suspension were preincubated with test compounds dissolved in DMSO (final concentration <2%) for 15 minutes and stimulated with calcium ionophore (final concentration 8.3 μM) for 10 minutes at 37° C. Incubations were stopped with the addition of two volumes of ice-cold methanol followed by centrifuging the cell suspensions at 4° C. for 10 minutes at 450 × g. The amount of LTB4 in the methanol extract was analyzed by enzyme-linked immunoassay or by HPLC analysis.

leukotriene biosynthesis = experiment: Ionophore A23187-Induced Rat Pleural Inflammation Model (leukotriene biosynthesis inhibition in vivo); conditions: 1 h, male rats, dosed in 0.2% methocel one hour prior to intrapleural A23187, eicosanoids in pleural lavage
Method: Lipoxygenase Inhibition Determination in vivo
Inhibition of leukotriene biosynthesis in vivo was evaluated using the lonophore A32187-Induced Rat Plueral Inflammation Model. Pleural inflammation was induced in male rats following the method of Rao, et al (Rao, T. S., Currie, J. L., Shaffer, A. F., Isakson, P. C., (1993) Evaluation of 5-lipoxygenase Inhibitors, Zileuton, A-78773 and ICI D-2138 in an Ionophore (A-23187) Induced Pleural Inflammation Model in the Rat, Life Sciences, 53: 147 (1993)). Rats were dosed with experimental compounds in 0.2% methocel one hour prior to the intrapleural injection of the calcium ionophore, A23187. The rats where lightly anesthetized with Pentrane (Abbott Laboratories) and injected intrapleurally with 0.5 ml of 2% ethanol in injectable saline (Abbott Laboratories) containing 20 μg of A23187 (Cal BioChem-Novabiochem). Thirty minutes later the animals were euthanised and the pleural cavities lavaged with ice cold saline (Abbott Laboratories). The lavage fluid was then added to ice cold methanol (final methanol concentration 30%) to lyse cells and precipitate protein. Eicosanoids were determined by enzyme immunoassay by standard methods.

IC50 [1]: 230 nM
Structure (SMILES): CC(SCC(=O)O)(c1ccc(OCc2ccc3ccccc3n2)cc1)c1ccc(OCc2ccc3ccccc3n2)cc1 [Example 1, 1,1-bis(4-(2-quinolylmethoxy)phenyl)eth-1-ylthioacetic acid]
ED50 (leukotriene biosynthesis): 1.1 mg/kg
